# According to patent US20030162694A1, “Novel treatment for pathological aggression” (priority 2002, published 2003):
# How the values were obtained:
# C57BL/6 mice = conditions: chronic exposure (i.c.v.), low baseline aggressiveness (Lumley, Soc. Neurosci); cited from earlier work
# individually housed mice = conditions: cited from earlier work
# SJL mice = test: social interaction test with a non-aggressive conspecific in long-term individually housed hyperaggressive mice (isolation-induced aggression); type: in vivo; conditions: for mice that attacked: vehicle 8 of 8
# Excerpt: It is well-established that housing in isolation for significant periods of time will enhance the natural tendency of cage resident mice to attack an “intruder” mouse placed in their home cage. The isolation model in mice is the most appropriate model for screening drugs for anti-aggression potential. We tested whether acute exposure to the NAALADase inhibitor [2-[(pentafluorophenylmethyl) hydroxyphosphinyl]methyl-pentanedioic acid, administered prior to a social interaction test, would inhibit aggressive behavior in SJL mice that had been individually housed for eight months. [2-[(pentafluorophenylmethyl) hydroxyphosphinyl]methyl-pentanedioic acid (30 mg/kg, i.p.) was administered 30 minutes prior to a social interaction test to pharmacologically naive male mice which had been selected and behaviorally shaped to be hyperaggressive, and had consistently shown markedly aggressive behaviors in prior interactions with intruder mice. Administration of [2-[(pentafluorophenylmethyl) hydroxyphosphinyl]methyl-pentanedioic acid (30 mg/kg, i.p.) inhibited aggression, indicated by greater latencies to display tail-rattling, attack and bite, and fewer tail-rattling responses to a non-aggressive conspecific, relative to vehicle. In addition, fewer mice that received [2-[(pentafluorophenylmethyl) hydroxyphosphinyl]methyl-pentanedioic acid (30 mg/kg) initiated attack, relative to those that received vehicle.
# We hypothesized that similar to the effects of NMDA antagonists, NAALADase inhibition and therefore increased NAAG, would inhibit aggressiveness under conditions of high basal levels of aggressiveness. We administered the NAALADase inhibitor [2-[(pentafluorophenylmethyl) hydroxyphosphinyl]methyl-pentanedioic acid prior to a social interaction test in a novel cage and measured behavioral responses to a non-aggressive conspecific; a novel cage was used to lower the levels of aggressiveness. The paradigm used was adapted from File (reviewed in Crawley, 2000).
# Principles of laboratory animal care (NIH publication No. 85-23, revised 1985) were followed. […] In addition, these mice had been used to socially defeat mice that were used as subjects in numerous other studies. These highly aggressive SJL had no previous drug exposure. At the end of 8 months of training, subjects weighed 30-37 grams and had attack latencies of less than 30 sec when exposed to an obx. During the social interaction test, two C57BL/6 male mice (30-33 g; Jackson Laboratories), which were screened for non-aggressiveness and unfamiliar to the subjects, were used as stimulus mice.
# [2-[(pentafluorophenylmethyl) hydroxyphosphinyl]methyl-pentanedioic acid, MW 390.2 (3 mg/kg or 30 mg/kg in 50 mM Hepes in 0.9% saline; pH 7.2; Guilford Pharmaceuticals) or vehicle (50 mM Hepes in 0.9% saline; pH 7.2) was administered intraperitoneally (i.p.; 10 ml/kg) 30 min. prior to a 4 min. social interaction test. Subject mice were placed in a novel cage (48×27×20 cm) along with a non-aggressive male conspecific and tested under low illumination (red lights) during the dark phase of their cycle. Methods for various social interaction tests reviewed in Crawley et al. (2000). Tests were videotaped and behaviors were scored using a computer program (Hindsight, Scott Weiss, UK), by two observers blind to the treatment. Behavioral measures included 1) measures of aggressiveness or threat: attack, bite, chase or follow, grooming conspecific, tail rattling 2) measures of exploratory and locomotor activity: walking, rearing, digging, 3) measures of defensiveness: defensive posture (crouch, upright) and flight. Details on behavioral measurements may be found in Grant and McIntosh, 1963; Lumley et al., 2000; Crawley, 2000.
# One-way analysis of variance was performed for each behavioral measure with drug dose as the independent factor. Data were further probed using Dunnet=s test.
# mice = mice (McAllister, 1990); cited from earlier work
compound,measurement,setting,value
"O=C(O)CCC(CP(=O)(O)O)C(=O)O (stereo not shown) [2-PMPA, 2-(phosphonomethyl)-pentanedioic acid]",aggressiveness,C57BL/6 mice,increase aggressiveness
"c1ccc(C2(N3CCCCC3)CCCCC2)cc1 [PCP, phencyclidine]",aggressiveness,"individually housed mice; individually housed mice (Wilmot et al., 1987)",increased aggressiveness
same,number of mice that displayed attack,individually housed mice; individually housed mice,reduced the number of mice that displayed attack
O=C(O)CCC(CP(=O)(O)Cc1c(F)c(F)c(F)c(F)c1F)C(=O)O (stereo not shown) [[2-[(pentafluorophenylmethyl) hydroxyphosphinyl]methyl-pentanedioic acid],mice that attacked,SJL mice; 3 mg/kg,7 of 10
same,latency to attack,"SJL mice; 30 mg/kg i.p., 30 min before 4 min test, relative to vehicle, F (2, 26)=2.36",increased latencies
same,latency to bite,"SJL mice; 30 mg/kg i.p., 30 min before 4 min test, relative to vehicle, F (2, 26)=2.82",increased latencies
same,latency to display tail-rattling,"SJL mice; 30 mg/kg i.p., 30 min before 4 min test, relative to vehicle, F (2, 26)=7.41",increased latencies
same,number of tail-rattling responses,"SJL mice; 30 mg/kg, relative to vehicle, F (2, 26)=3.66",tended to display fewer tail-rattling responses
same,mice that attacked,SJL mice; 30 mg/kg,4 of 9
same,percent of mice that attacked the conspecific,"SJL mice; 30 mg/kg, vehicle 100%",44%
same,defensive responses,"SJL mice; 3 or 30 mg/kg i.p., few mice displayed any",no effect
same,number of attacks,"SJL mice; in mice displaying the behavior, 3 or 30 mg/kg i.p., F (2,18)=0.11",no effect
same,number of bites,"SJL mice; in mice displaying the behavior, 3 or 30 mg/kg i.p., F (2, 26)=0.31",no effect
same,number of attacks in the 4 of 9 treated mice that attacked,"SJL mice; relative to vehicle-treated mice, not significant",tended to have more attacks
same,tail rattling responses as stated in the discussion,"SJL mice; relative to vehicle, dose not stated",more tail rattling responses than vehicle
C[C@]12N[C@H](Cc3ccccc31)c1ccccc12 [dizocilpine],aggression,mice,increased aggression
